pKd: −log10 of the molar value. Activity calls are given as the source filed them. Rule as the data show it, for most assays here: actives have a measured Kd and inactives only a lower limit.
Key:
[1] = molecular target: T1, Cyclin-G-associated kinase (Homo sapiens, UniProt O14976)
T1 sequence (O14976 whole entry): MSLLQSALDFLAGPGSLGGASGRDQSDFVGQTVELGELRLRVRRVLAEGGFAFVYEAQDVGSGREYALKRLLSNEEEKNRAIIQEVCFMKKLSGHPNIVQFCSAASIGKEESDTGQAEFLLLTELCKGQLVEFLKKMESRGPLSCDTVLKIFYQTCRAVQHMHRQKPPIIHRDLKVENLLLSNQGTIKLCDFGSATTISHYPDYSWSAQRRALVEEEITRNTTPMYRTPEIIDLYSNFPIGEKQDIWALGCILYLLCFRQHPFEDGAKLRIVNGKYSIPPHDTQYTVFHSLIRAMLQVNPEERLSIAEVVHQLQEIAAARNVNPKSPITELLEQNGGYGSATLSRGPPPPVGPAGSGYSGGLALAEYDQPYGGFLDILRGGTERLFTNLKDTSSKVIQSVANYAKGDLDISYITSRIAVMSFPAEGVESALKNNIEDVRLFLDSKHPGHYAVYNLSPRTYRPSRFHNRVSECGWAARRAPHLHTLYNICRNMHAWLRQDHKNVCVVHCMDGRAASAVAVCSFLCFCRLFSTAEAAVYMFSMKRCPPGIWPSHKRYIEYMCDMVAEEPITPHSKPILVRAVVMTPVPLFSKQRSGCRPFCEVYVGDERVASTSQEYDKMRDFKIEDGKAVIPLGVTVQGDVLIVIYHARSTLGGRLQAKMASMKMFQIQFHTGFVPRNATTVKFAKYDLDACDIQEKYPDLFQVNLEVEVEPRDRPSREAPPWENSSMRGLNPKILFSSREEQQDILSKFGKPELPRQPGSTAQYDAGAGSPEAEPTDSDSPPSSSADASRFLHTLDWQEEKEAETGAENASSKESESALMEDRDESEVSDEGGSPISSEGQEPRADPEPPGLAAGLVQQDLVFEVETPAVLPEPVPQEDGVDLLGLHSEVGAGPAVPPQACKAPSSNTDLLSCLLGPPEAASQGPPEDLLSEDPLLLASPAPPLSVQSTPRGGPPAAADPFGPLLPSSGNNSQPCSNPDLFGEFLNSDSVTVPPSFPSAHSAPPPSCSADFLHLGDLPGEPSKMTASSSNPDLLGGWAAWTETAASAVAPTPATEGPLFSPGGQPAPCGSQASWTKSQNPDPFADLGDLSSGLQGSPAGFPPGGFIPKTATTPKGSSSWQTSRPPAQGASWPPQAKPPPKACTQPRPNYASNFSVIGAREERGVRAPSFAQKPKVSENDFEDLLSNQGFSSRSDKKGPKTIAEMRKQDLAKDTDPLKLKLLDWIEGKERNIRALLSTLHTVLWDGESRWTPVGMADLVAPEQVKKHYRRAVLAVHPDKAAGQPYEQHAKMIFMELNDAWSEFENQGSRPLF

[2] = molecular target: Rho-associated protein kinase 1 (Homo sapiens, UniProt Q13464)
Chain of Rho-associated protein kinase 1 (Q13464 whole entry): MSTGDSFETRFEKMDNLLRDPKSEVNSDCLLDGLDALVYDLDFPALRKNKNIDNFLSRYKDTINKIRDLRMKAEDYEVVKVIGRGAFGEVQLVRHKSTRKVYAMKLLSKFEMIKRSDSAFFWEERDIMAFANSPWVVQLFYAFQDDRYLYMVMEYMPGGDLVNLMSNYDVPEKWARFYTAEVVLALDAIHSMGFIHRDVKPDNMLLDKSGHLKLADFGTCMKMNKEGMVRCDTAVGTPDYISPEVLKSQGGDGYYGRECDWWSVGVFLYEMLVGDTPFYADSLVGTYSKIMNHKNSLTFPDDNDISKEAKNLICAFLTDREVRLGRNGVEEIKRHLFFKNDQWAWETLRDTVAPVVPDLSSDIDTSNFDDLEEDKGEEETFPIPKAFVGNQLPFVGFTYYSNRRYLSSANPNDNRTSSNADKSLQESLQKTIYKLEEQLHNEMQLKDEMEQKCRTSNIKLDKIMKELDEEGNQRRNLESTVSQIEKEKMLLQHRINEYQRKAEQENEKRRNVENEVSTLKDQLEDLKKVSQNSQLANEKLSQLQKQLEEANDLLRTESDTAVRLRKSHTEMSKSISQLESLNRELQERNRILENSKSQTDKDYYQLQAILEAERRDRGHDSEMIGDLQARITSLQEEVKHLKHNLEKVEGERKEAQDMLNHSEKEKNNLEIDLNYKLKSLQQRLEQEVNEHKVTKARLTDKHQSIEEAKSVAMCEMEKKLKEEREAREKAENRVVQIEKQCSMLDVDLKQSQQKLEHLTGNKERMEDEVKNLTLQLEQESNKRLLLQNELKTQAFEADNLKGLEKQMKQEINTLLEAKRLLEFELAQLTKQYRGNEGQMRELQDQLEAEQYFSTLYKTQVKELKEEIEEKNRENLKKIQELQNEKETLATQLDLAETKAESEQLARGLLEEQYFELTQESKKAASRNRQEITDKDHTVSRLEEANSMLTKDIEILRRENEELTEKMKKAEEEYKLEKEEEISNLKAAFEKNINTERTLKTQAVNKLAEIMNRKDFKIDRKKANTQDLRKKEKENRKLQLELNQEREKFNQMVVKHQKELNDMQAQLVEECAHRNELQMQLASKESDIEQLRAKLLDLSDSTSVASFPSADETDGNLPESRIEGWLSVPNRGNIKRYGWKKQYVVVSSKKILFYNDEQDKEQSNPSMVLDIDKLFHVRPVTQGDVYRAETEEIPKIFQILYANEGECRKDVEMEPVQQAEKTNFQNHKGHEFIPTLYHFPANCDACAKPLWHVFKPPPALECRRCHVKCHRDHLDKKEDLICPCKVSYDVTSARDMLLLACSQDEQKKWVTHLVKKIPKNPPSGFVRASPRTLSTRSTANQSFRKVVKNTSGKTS

[3] = molecular target: cAMP-dependent protein kinase catalytic subunit alpha (Homo sapiens, UniProt P17612)
[4] = molecular target: MAP/microtubule affinity-regulating kinase 3 (Homo sapiens, UniProt P27448)
[5] = molecular target: T2, Delta(24)-sterol reductase (Homo sapiens, UniProt Q15392)
T2 sequence (Q15392 whole entry): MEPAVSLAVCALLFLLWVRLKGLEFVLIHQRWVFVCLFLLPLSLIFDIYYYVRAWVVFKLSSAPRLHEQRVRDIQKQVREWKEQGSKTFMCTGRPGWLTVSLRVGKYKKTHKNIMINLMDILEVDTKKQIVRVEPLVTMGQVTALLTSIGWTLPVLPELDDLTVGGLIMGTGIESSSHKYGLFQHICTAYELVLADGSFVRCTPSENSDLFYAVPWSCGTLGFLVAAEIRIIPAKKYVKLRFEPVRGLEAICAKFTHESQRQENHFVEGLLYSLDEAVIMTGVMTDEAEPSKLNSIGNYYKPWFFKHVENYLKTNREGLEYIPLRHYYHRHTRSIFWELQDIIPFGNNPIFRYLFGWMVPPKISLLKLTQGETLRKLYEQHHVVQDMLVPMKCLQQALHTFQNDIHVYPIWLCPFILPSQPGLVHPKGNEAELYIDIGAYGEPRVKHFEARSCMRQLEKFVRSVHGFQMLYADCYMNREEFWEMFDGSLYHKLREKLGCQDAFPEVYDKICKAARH

[6] = molecular target: Cyclin-dependent kinase 12 (Homo sapiens, UniProt Q9NYV4)
[7] = molecular target: Serine/threonine-protein kinase SIK3 (Homo sapiens, UniProt Q9Y2K2)
Chain of Serine/threonine-protein kinase SIK3 (Q9Y2K2 whole entry): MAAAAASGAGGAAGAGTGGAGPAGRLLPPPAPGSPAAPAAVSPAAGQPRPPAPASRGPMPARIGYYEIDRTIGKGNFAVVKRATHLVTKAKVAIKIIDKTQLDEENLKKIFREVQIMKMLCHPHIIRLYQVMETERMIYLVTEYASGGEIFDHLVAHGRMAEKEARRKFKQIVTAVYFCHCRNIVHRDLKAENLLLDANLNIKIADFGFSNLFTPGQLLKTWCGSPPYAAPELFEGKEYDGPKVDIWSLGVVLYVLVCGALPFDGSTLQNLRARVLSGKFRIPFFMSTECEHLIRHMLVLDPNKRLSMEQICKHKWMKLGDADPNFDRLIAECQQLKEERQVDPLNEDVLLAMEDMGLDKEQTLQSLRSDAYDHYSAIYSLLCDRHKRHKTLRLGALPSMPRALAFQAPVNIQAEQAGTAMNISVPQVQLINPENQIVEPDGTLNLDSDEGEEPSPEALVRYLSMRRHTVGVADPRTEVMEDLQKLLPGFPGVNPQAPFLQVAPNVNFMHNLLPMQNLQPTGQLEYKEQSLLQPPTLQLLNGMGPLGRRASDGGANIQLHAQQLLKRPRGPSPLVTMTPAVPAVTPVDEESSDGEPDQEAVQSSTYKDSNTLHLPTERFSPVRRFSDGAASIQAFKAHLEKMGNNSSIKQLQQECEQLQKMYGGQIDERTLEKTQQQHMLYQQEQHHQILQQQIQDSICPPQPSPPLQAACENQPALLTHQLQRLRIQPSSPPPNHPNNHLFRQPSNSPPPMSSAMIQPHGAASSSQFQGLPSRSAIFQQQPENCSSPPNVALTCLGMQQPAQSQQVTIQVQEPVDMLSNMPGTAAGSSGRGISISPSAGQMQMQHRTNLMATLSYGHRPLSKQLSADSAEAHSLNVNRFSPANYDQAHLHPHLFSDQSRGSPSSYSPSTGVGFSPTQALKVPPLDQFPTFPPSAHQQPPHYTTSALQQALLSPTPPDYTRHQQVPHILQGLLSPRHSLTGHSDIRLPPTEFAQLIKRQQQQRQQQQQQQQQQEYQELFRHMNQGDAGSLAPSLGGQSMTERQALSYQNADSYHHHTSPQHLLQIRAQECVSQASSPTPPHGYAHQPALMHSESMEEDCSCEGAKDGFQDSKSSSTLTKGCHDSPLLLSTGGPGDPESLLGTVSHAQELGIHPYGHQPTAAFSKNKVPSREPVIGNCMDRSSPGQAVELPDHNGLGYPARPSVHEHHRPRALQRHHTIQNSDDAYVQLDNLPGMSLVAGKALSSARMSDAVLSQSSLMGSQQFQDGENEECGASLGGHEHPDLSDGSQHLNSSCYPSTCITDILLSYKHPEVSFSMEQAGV

[8] = molecular target: DNA topoisomerase 2-alpha (Homo sapiens, UniProt P11388)
[9] = molecular target: Tyrosine-protein kinase Lyn (Homo sapiens, UniProt P07948)
Chain of Tyrosine-protein kinase Lyn (P07948 whole entry): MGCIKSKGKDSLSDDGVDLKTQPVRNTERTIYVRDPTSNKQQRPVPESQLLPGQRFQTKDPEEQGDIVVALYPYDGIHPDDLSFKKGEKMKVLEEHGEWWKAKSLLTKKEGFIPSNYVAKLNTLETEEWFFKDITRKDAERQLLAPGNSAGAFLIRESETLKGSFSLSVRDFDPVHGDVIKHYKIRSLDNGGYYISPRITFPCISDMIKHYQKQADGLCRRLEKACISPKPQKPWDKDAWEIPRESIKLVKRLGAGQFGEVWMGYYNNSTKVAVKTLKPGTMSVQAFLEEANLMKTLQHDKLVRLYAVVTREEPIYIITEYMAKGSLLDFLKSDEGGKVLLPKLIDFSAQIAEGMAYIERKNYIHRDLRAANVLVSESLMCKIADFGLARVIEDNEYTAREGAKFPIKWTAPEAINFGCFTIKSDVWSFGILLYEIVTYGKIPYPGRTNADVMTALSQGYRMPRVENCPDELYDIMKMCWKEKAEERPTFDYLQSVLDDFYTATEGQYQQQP

[10] = molecular target: Cyclin-dependent kinase 13 (Homo sapiens, UniProt Q14004)
Chain of Cyclin-dependent kinase 13 (Q14004 whole entry): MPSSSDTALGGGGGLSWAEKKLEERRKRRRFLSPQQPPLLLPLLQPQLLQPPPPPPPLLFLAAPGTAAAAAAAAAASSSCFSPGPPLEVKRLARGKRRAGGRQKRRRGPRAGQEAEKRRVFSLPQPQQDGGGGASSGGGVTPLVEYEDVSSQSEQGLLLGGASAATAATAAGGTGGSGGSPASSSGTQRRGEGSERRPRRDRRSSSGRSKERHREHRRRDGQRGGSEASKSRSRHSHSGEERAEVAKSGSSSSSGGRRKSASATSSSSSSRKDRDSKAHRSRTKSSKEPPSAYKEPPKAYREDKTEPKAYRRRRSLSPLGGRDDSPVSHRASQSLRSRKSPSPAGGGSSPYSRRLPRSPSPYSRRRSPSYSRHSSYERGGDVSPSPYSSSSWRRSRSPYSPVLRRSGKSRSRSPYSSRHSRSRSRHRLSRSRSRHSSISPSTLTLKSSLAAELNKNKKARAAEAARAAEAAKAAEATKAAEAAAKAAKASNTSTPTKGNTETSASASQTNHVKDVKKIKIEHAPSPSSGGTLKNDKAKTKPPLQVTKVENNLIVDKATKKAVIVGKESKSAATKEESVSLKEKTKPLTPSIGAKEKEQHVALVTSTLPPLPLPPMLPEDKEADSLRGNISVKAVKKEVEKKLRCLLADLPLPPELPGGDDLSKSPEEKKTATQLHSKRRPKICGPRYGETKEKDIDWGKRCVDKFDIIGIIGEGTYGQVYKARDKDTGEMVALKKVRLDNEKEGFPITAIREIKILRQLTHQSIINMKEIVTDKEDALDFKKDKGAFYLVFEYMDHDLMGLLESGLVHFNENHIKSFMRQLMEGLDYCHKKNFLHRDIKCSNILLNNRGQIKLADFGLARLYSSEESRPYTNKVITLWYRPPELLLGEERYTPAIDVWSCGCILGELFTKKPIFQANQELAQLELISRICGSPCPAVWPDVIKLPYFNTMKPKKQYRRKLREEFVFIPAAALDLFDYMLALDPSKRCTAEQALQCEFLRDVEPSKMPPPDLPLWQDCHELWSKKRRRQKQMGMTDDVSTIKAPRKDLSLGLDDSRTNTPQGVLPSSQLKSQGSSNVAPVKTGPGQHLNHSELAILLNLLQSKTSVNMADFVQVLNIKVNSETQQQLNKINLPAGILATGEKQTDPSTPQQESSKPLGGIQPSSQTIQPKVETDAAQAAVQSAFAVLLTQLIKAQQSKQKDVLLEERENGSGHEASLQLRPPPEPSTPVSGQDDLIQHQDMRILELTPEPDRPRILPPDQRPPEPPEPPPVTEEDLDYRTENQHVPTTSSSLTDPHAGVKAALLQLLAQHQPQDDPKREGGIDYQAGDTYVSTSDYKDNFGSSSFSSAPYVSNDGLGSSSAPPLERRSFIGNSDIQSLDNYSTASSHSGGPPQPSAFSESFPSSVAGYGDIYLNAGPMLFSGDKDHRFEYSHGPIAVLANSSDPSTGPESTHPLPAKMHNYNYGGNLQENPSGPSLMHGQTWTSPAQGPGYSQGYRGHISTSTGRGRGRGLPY

[11] = molecular target: T3, Phosphatidylinositol 5-phosphate 4-kinase type-2 alpha (Homo sapiens, UniProt P48426)
T3 sequence (P48426 whole entry): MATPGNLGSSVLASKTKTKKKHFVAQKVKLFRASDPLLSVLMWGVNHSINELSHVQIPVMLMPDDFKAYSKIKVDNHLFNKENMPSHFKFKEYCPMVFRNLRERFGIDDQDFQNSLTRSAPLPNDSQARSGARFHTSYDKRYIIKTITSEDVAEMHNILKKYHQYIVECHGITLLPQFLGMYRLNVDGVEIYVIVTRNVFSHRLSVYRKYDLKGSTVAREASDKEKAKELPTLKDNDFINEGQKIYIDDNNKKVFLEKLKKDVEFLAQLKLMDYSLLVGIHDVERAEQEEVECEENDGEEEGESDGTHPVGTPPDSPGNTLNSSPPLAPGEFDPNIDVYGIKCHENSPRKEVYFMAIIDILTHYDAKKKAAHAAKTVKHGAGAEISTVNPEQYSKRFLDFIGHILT
Also: in the data inactive means no Kd found up to 30 µM.

C[C@@H](Oc1cc(C(=O)Nc2ccc(C(=O)N3CCN(C)CC3)cc2)nnc1N)c1c(Cl)ccc(F)c1Cl
inactive: Kd [1] > 30 µM | Kd [2] > 30 µM | Kd [3] > 30 µM | Kd [4] > 30 µM | Kd [5] > 30 µM | Kd [6] > 30 µM | Kd [7] > 30 µM | Kd [8] > 30 µM | Kd [9] > 30 µM | Kd [10] > 30 µM

CC(=O)c1cnc2ccc(-c3cc(Cl)c(O)c(Cl)c3)nc2c1N[C@H]1CC[C@H](CN(C)C)CC1
inactive: Kd [11] > 30 µM | Kd [2] > 30 µM | Kd [3] > 30 µM | Kd [4] > 30 µM | Kd [5] > 30 µM | Kd [6] > 30 µM | Kd [8] > 30 µM | Kd [10] > 30 µM
active: Kd [1] 0.005 µM | Kd [7] 0.356 µM | Kd [9] 0.121 µM

COCc1c(-c2ccc(NC(=O)Nc3cc(C(F)(F)F)ccc3F)c(F)c2)c2c(N)ncnn2c1CN1CCOCC1
inactive: Kd [1] > 30 µM | Kd [11] > 30 µM | Kd [2] > 30 µM | Kd [3] > 30 µM | Kd [4] > 30 µM | Kd [5] > 30 µM | Kd [6] > 30 µM | Kd [7] > 30 µM | Kd [8] > 30 µM | Kd [9] > 30 µM | Kd [10] > 30 µM

Nc1ncnc2c1c(-c1cccc(OCc3ccccc3)c1)cn2[C@H]1C[C@@H](CN2CCC2)C1 [AEW-541]
active: Kd [9] 2.44 µM
inactive: Kd [1] > 30 µM | Kd [2] > 30 µM | Kd [3] > 30 µM | Kd [4] > 30 µM | Kd [5] > 30 µM | Kd [6] > 30 µM | Kd [7] > 30 µM | Kd [8] > 30 µM | Kd [10] > 30 µM

Cc1nc(NC(=O)N2CCC[C@H]2C(N)=O)sc1-c1ccnc(C(C)(C)C(F)(F)F)c1 [ALPELISIB]
active: Kd [1] 4.97 µM
inactive: Kd [2] > 30 µM | Kd [3] > 30 µM | Kd [4] > 30 µM | Kd [5] > 30 µM | Kd [6] > 30 µM | Kd [7] > 30 µM | Kd [8] > 30 µM | Kd [9] > 30 µM | Kd [10] > 30 µM

COc1cc([C@@H]2c3cc4c(cc3[C@H](O)[C@H]3COC(=O)[C@@H]23)OCO4)cc(OC)c1OC [AXL-1717]
6.31: pKd [8]
inactive: Kd [1] > 30 µM | Kd [11] > 30 µM | Kd [2] > 30 µM | Kd [3] > 30 µM | Kd [4] > 30 µM | Kd [5] > 30 µM | Kd [6] > 30 µM | Kd [7] > 30 µM | Kd [9] > 30 µM

Cc1nc2cc(-n3ncc(C(=O)c4cc5ccccc5[nH]4)c3N)ccc2[nH]1 [FGFR INHIBITOR DEBIO 1347]
inactive: Kd [1] > 30 µM | Kd [2] > 30 µM | Kd [3] > 30 µM | Kd [4] > 30 µM | Kd [5] > 30 µM | Kd [6] > 30 µM | Kd [7] > 30 µM | Kd [8] > 30 µM | Kd [9] > 30 µM | Kd [10] > 30 µM

FC(F)(F)c1ccc(/C=C/c2nc(COc3ccc(CCCCn4ccnn4)cc3)co2)cc1 [MUBRITINIB]
inactive: Kd [1] > 30 µM | Kd [2] > 30 µM | Kd [3] > 30 µM | Kd [4] > 30 µM | Kd [5] > 30 µM | Kd [6] > 30 µM | Kd [7] > 30 µM | Kd [8] > 30 µM | Kd [9] > 30 µM | Kd [10] > 30 µM

Cc1cnc(NC(=O)Nc2cc(Br)c(C)cc2OC[C@@H]2CNCCO2)cn1 [RABUSERTIB]
inactive: Kd [1] > 30 µM | Kd [2] > 30 µM | Kd [3] > 30 µM | Kd [4] > 30 µM | Kd [5] > 30 µM | Kd [6] > 30 µM | Kd [7] > 30 µM | Kd [8] > 30 µM | Kd [9] > 30 µM | Kd [10] > 30 µM

CNC(=O)c1cc(Oc2ccc(NC(=O)Nc3cc(C(C)(C)C)nn3-c3ccc4ncccc4c3)c(F)c2)ccn1 [REBASTINIB]
inactive: Kd [1] > 30 µM | Kd [11] > 30 µM | Kd [2] > 30 µM | Kd [3] > 30 µM | Kd [4] > 30 µM | Kd [5] > 30 µM | Kd [6] > 30 µM | Kd [7] > 30 µM | Kd [8] > 30 µM | Kd [10] > 30 µM

CN1CCN(CCOc2cc(OC3CCOCC3)c3c(Nc4c(Cl)ccc5c4OCO5)ncnc3c2)CC1 [SARACATINIB]
active: Kd [7] 4.85 µM | Kd [9] 0.113 µM
inactive: Kd [11] > 30 µM | Kd [2] > 30 µM | Kd [3] > 30 µM | Kd [4] > 30 µM | Kd [5] > 30 µM | Kd [6] > 30 µM | Kd [8] > 30 µM | Kd [10] > 30 µM

Cn1cc(-c2cnn3c(N)c(Br)c([C@@H]4CCCNC4)nc23)cn1 [SCH-900776]
inactive: Kd [1] > 30 µM | Kd [11] > 30 µM | Kd [2] > 30 µM | Kd [3] > 30 µM | Kd [5] > 30 µM | Kd [6] > 30 µM | Kd [7] > 30 µM | Kd [9] > 30 µM | Kd [10] > 30 µM
active: Kd [4] 1.93 µM

O=C1NC(=O)[C@@H](c2cn3c4c(cccc24)CCC3)[C@@H]1c1c[nH]c2ccccc12 [TIVANTINIB]
inactive: Kd [1] > 30 µM | Kd [2] > 30 µM | Kd [3] > 30 µM | Kd [4] > 30 µM | Kd [5] > 30 µM | Kd [6] > 30 µM | Kd [7] > 30 µM | Kd [8] > 30 µM | Kd [9] > 30 µM | Kd [10] > 30 µM

CC(C)c1cc(CNc2nc(Nc3cc(C4CC4)[nH]n3)cc(N3CCN(C)CC3)n2)on1 [XL-228]
inactive: Kd [1] > 30 µM | Kd [2] > 30 µM | Kd [3] > 30 µM | Kd [5] > 30 µM | Kd [6] > 30 µM | Kd [7] > 30 µM | Kd [8] > 30 µM | Kd [10] > 30 µM
active: Kd [4] 0.133 µM | Kd [9] 1.33 µM

Source: ChEMBL document CHEMBL3991601, “The target landscape of clinical kinase drugs” (Science, 2017)
